Reference: US10793576B2, “Compound used as Bruton's tyrosine kinase inhibitor and preparation method and application thereof” (Chengdu Brilliant Pharmaceutical Co., LTD., priority 2017, dated 2020)

Key:
TMD8 cells = assay: Cell proliferation inhibition in vitro, TMD8 cells by CCK-8 method; type: cell-based; conditions: Homo sapiens, 72 hours, read-out: Inhibitions of cell activities IC50 (nM) TMD8
Protocol: (§1) Test Example 2: Determination of the Inhibition of Cell Proliferation Inhibitory Activity in
(§2) vitro of compounds using different cell lines
(§3) 2: Preparation of the Compounds:
(§4) The compounds to be tested were diluted with DMSO to prepare a mother liquor at a final concentration of 10 mM for later use.
(§5) 3.1. Test of TMD8 and OCI-ly10 Cells by CCK-8 Method
(§6) Logarithmic growth phase cells were collected, counted and resuspended in complete medium. The cell concentration was adjusted to a suitable concentration (determined according to the cell density optimization test results), and seeded to 96-well plate and 100 μl of the cell suspension was added to each well. The cells were incubated in an incubator at 37° C., 100% relative humidity and 5% C02 for 24 hours.
(§7) The compounds to be tested were diluted with the medium to the set corresponding action concentration, and the cells were added at 25 µl/well. The cells were incubated in an incubator at 37° C., 100% relative humidity and 5% C02 for 72 hours.
(§8) The medium was aspirated and discarded, and a complete medium containing 10% of the test reagent was added and the obtained system was incubated in a 37° C. incubator for 1 hour-4 hours.
(§9) As: OA of the sample (cell+test reagent+test compound)
(§10) Ac: OA of the negative control (cell+test reagent+DMSO)
(§11) Ab: OA of the positive control (medium+test reagent+DMSO)
(§12) IC50 curve fitting was performed using the software Graphpad Prism 5 or XLfit and IC50 values were calculated.

OCI-LY10 cells = assay: Cell proliferation inhibition in vitro, OCI-ly10 cells by CCK-8 method; type: cell-based; conditions: Homo sapiens, 72 hours, read-out: Inhibitions of cell activities IC50 (nM) OCI-LY10
Protocol: as §1, §2, §3, §4, §5, §6, §7, §8, §9, §10, §11, §12

DOHH2 cells = assay: Cell proliferation inhibition in vitro, DOHH2 cells by CTG assay; type: cell-based; conditions: Homo sapiens, DOHH-2, 72 hours, read-out: Inhibitions of cell activities IC50 (nM) DOHH2
Protocol: as §1, §2, §3, §4
3.2 Test of DOHH2 Cells by CTG Assay
as §6
The compounds to be tested were diluted with the medium to the set corresponding action concentration, and the cells were added at 10 µl/well. The cells were incubated in an incubator set at 37° C., 100% relative humidity and 5% C02 for 72 hours.
The medium was aspirated and discarded, and 30 μl of test reagent was added. The plate was gentle shaken away from the light to lyse the cells.
as §9, §10, §11, §12

BTK kinase = BTK kinase (Homo sapiens (Human), UniProt Q06187); assay: In vitro assay for the inhibition of BTK kinase activity (Mobility-Shift Assay); type: biochemical
Excerpt: Mobility-Shift Assay, which is microfluidic chip technology, applies the basic concept of capillary electrophoresis to microfluidic environments. The substrate used for the experiment is a polypeptide with a fluorescent label. Under the action of enzyme in the reaction system, the substrate is transformed into a product, and the charge the substrate carries also changes accordingly. The use of the charge difference between the substrate and the product involved in Mobility-Shift Assay achieves the separating of the two, and they are tested respectively. The test results are expressed by conversion rates.
(3) 100% DMSO was added to the positive control well and the negative control well, respectively;

BTK kinase, sequence (Q06187 whole entry): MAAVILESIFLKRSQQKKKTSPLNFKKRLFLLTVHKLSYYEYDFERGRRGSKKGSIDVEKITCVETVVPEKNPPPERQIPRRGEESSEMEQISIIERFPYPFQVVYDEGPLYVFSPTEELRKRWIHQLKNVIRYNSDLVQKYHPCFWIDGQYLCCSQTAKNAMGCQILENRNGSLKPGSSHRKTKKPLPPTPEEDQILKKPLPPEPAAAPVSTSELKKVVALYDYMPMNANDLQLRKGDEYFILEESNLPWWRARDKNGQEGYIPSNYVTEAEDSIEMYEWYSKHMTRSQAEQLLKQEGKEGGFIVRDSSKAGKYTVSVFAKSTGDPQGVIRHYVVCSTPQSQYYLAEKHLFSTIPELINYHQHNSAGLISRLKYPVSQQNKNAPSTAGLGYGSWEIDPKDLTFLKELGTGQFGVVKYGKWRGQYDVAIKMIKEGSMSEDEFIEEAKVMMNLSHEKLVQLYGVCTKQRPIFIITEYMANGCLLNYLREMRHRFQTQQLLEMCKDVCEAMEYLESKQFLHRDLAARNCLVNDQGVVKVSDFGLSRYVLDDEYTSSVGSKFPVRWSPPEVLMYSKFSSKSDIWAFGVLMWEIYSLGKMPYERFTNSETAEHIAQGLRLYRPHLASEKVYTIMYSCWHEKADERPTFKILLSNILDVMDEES

| IC50 (OCI-LY10 cells) [nM] | IC50 (BTK kinase) [nM] | Structure (SMILES) | IC50 (TMD8 cells) [nM] | IC50 (DOHH2 cells) [nM] |
| --- | --- | --- | --- | --- |
| 1.8 | 12.5 | CC#CC(=O)N1C2CN[C@@H](C2)C1c1nc(-c2ccc(C(=O)Nc3ccccn3)cc2)c2c(N)nccn12 (some centres unmarked) [Example 14] | 7.5 | > 1000 |
| 17.6 | 17.4 | C=CC(=O)N1C2C[C@@H](C1c1nc(-c3ccc(C(=O)Nc4ccccn4)cc3)c3c(N)nccn13)N(C)C2 (some centres unmarked) [Example 15] | 64.5 | 716 |
| 3.1 | 9.5 | C=CC(=O)N1C2C[C@@H](C1c1nc(-c3ccc(C(=O)Nc4ccccn4)cc3)c3c(N)nccn13)N(C(C)C)C2 (some centres unmarked) [Example 16] | 1.6 | > 1000 |
| 2.4 | 49 | CC#CC(=O)N1[C@@H]2CC[C@@H](C2)[C@H]1c1nc(-c2ccc(C(=O)Nc3ccccn3)cc2)c2c(N)nccn12 [Example 23, 4-(8-amino-3-((1R,3S,4S)-2-(but-2-ynoyl)-2-azabicyclo[2.2.1]heptan-3-yl)imidazo [1,5-a]pyrazin-1-yl)-N-(pyridin-2-yl)benzamide] | 1.1 | > 1000 |
| 0.33 | 5.3 | C=CC(=O)N1CC2CCCC2C1c1nc(-c2ccc(C(=O)Nc3cc(C(F)(F)F)ccn3)cc2)c2c(N)nccn12 (centres unmarked) [Example 42] | 0.26 | 104 |
| 0.42 | 4.4 | CC#CC(=O)N1CC2CCCC2C1c1nc(-c2ccc(C(=O)Nc3cc(C(F)(F)F)ccn3)cc2)c2c(N)nccn12 (centres unmarked) [Example 43] | 2.3 | 217 |
| 1.3 | 34 | C=CC(=O)N1C[C@H]2[C@@H](C1c1nc(-c3ccc(C(=O)Nc4cc(C(F)(F)F)ccn4)cc3)c3c(N)nccn13)C2(C)C (some centres unmarked) [Example 44] | 7.8 | 717 |
| 1.1 | 17 | CC#CC(=O)N1C[C@H]2[C@@H](C1c1nc(-c3ccc(C(=O)Nc4cc(C(F)(F)F)ccn4)cc3)c3c(N)nccn13)C2(C)C (some centres unmarked) [Example 45] | 6.4 | 285 |
| 0.37 | 4.2 | C=CC(=O)N1C2CC[C@@H](C2)C1c1nc(-c2ccc(C(=O)Nc3cc(C(F)(F)F)ccn3)cc2)c2c(N)nccn12 (some centres unmarked) [Example 46] | 3.4 | 94.3 |
| 0.35 | 2.4 | C=CC(=O)N1C2CN[C@@H](C2)C1c1nc(-c2ccc(C(=O)Nc3cc(C(F)(F)F)ccn3)cc2)c2c(N)nccn12 (some centres unmarked) [Example 52] | 6.4 | 174 |
| 1.3 | 1.8 | CC#CC(=O)N1C2CN[C@@H](C2)C1c1nc(-c2ccc(C(=O)Nc3cc(C(F)(F)F)ccn3)cc2)c2c(N)nccn12 (some centres unmarked) [Example 53] | 0.75 | 166 |
| 0.64 | 1.5 | C=CC(=O)N1C2C[C@@H](C1c1nc(-c3ccc(C(=O)Nc4cc(C(F)(F)F)ccn4)cc3)c3c(N)nccn13)N(C)C2 (some centres unmarked) [Example 54] | 0.15 | 143 |
| 1.87 | 2.3 | C=CC(=O)N1C2C[C@@H](C1c1nc(-c3ccc(C(=O)Nc4cc(C(F)(F)F)ccn4)cc3)c3c(N)nccn13)N(C(C)C)C2 (some centres unmarked) [Example 55] | 0.48 | 97 |
| 3.4 | 4.3 | C=CC(=O)N1C2C[C@@H](C1c1nc(-c3ccc(C(=O)Nc4cc(C(F)(F)F)ccn4)cc3)c3c(N)nccn13)N(C(C)=O)C2 (some centres unmarked) [Example 56] | 5.9 | 74 |
| 3.9 | 13 | C=CC(=O)N1C2CC[C@@H](C2)C1c1nc(-c2ccc(C(=O)Nc3cc(C)ccn3)cc2)c2c(N)nccn12 (some centres unmarked) [Example 62] | 2.8 | 179 |
| 4.4 | 5.3 | C=CC(=O)N1CC2CCCC2C1c1nc(-c2ccc(C(=O)Nc3cc(Cl)ccn3)cc2)c2c(N)nccn12 (centres unmarked) [Example 68] | 3.2 | 172 |
| 0.74 | 1.4 | C=CC(=O)N1C[C@H]2[C@@H]([C@H]1c1nc(-c3ccc(C(=O)Nc4cc(Cl)ccn4)cc3)c3c(N)nccn13)C2(C)C [Example 69] | 0.62 | 124 |
| 3.2 | 2.4 | C=CC(=O)N1C2CC[C@@H](C2)C1c1nc(-c2ccc(C(=O)Nc3cc(Cl)ccn3)cc2)c2c(N)nccn12 (some centres unmarked) [Example 70] | 6.8 | 677 |
| 1.4 | 12 | C=CC(=O)N1C(c2nc(-c3ccc(C(=O)Nc4cc(Cl)ccn4)cc3)c3c(N)nccn23)CC2CC21 (centres unmarked) [Example 71] | 8.4 | 84 |
| 1.4 | 18 | CC#CC(=O)N1CC2(CC2)C[C@H]1c1nc(-c2ccc(C(C)(O)c3ccccc3)cc2)c2c(N)nccn12 (stereo partly drawn) [Example 73, 1-((6S)-6-(8-amino-1-(4-(1-hydroxy-1-phenylethyl)phenyl)imidazo[1,5-a]pyrazin-3-yl)-5-azaspiro[2.4]heptan-5-yl)but-2-yn-1-one] | 42.3 | 124 |
| 3.5 | 24 | C=CC(=O)N1CC2(CC2)C[C@H]1c1nc(-c2ccc(C(C)(O)c3ccccc3)cc2)c2c(N)nccn12 (stereo partly drawn) [Example 74, 1-((6S)-6-(8-amino-1-(4-(1-hydroxy-1-phenylethyl)phenyl)imidazo[1,5-a]pyrazin-3-yl)-5-azaspiro[2.4]heptan-5-yl)prop-2-en-1-one] | 9.7 | 72 |
| 0.26 | 8.5 | C=CC(=O)N1CC2CCCC2C1c1nc(-c2ccc(C(C)(O)c3ccccc3)cc2)c2c(N)nccn12 (centres unmarked) [Example 77] | 2.5 | 212 |
| 0.67 | 24 | CC#CC(=O)N1C2CC[C@@H](C2)C1c1nc(-c2ccc(C(C)(O)c3ccccc3)cc2)c2c(N)nccn12 (some centres unmarked) [Example 80] | 4.3 | 618 |
| 0.23 | 14 | C=CC(=O)N1C2C[C@@H](C1c1nc(-c3ccc(C(C)(O)c4ccccc4)cc3)c3c(N)nccn13)N(C(C)C)C2 (some centres unmarked) [Example 89] | 2.4 | 96 |
| 0.41 | 21 | CC#CC(=O)N1C2C[C@@H](C1c1nc(-c3ccc(C(C)(O)c4ccccc4)cc3)c3c(N)nccn13)N(C(C)C)C2 (some centres unmarked) [Example 91] | 1.4 | > 1000 |
| 0.31 | 4.3 | CC#CC(=O)N1CC2(CC2)C[C@H]1c1nc(-c2ccc(Oc3ccccc3)cc2)c2c(N)nccn12 [Example 92, (S)-1-(6-(8-amino-1-(4-phenoxyphenyl)imidazo[1,5-a]pyrazin-3-yl)-5-azaspiro[2.4]heptan-5-yl) but-2-yn-1-one] | 7.6 | 712 |
| 0.53 | 3.6 | C=CC(=O)N1CC2(CC2)C[C@H]1c1nc(-c2ccc(Oc3ccccc3)cc2)c2c(N)nccn12 [Example 93, (S)-1-(6-(8-amino-1-(4-phenoxyphenyl)imidazo[1,5-a]pyrazin-3-yl)-5-azaspiro[2.4]heptan-5-yl)prop-2-en-1-one] | 0.65 | 318 |
| 0.4 | 2.8 | CC#CC(=O)N1CC2CCCC2C1c1nc(-c2ccc(Oc3ccccc3)cc2)c2c(N)nccn12 (centres unmarked) [Example 97] | 6.2 | > 1000 |

| Structure (SMILES) | IC50 (OCI-LY10 cells) [nM] | IC50 (BTK kinase) [nM] | IC50 (TMD8 cells) [nM] | IC50 (DOHH2 cells) [nM] |
| --- | --- | --- | --- | --- |
| C=CC(=O)N1C2CCC1(c1nc(-c3ccc(C(=O)Nc4cc(C(F)(F)F)ccn4)cc3)c3c(N)nccn13)COC2 (centres unmarked) [Example 48] | 0.46 | 2.1 | 0.31 | 103 |
| CC#CC(=O)N1C2CCC1(c1nc(-c3ccc(C(=O)Nc4cc(C(F)(F)F)ccn4)cc3)c3c(N)nccn13)COC2 (centres unmarked) [Example 49] | 3.4 | 4.8 | 6.4 | 436 |
| C=CC(=O)N1C2CCC1(c1nc(-c3ccc(C(C)(O)c4ccccc4)cc3)c3c(N)nccn13)COC2 (centres unmarked) [Example 84] | 4.2 | 16.3 | 6.8 | 48 |
| CC#CC(=O)N1C2CCC1(c1nc(-c3ccc(C(C)(O)c4ccccc4)cc3)c3c(N)nccn13)COC2 (centres unmarked) [Example 85] | 0.97 | 9.4 | 18.2 | 96 |
